According to US8629276B2, “Inhibitors of human immunodeficiency virus replication” (priority 2012, dated 2014):

System: recombinant NL-Rluc virus
Assay: Inhibition of HIV replication (NL-RLuc virus, luciferase readout in MT-2 cells)
Type: cell-based
Conditions: Human immunodeficiency virus 1, MT2, 120 h

| Structure (SMILES) | EC50 [µM] |
| --- | --- |
| Cc1nc2c(c(-c3cc(F)c4c(c3C)CCCO4)c1[C@H](OC(C)(C)C)C(=O)O)CN(CCCc1ccccc1)CC2 (atropisomer, axis not shown) [Example 42, (2S)-2-(tert-Butoxy)-2-((R)-4-(8-fluoro-5-methylchroman-6-yl)-2-methyl-6-(3-phenylpropyl)-5,6,7,8-tetrahydro-1,6-naphthyridin-3-yl)acetic acid] | 0.007 |
| Cc1nc2c(c(-c3cc(F)c4c(c3C)CCCO4)c1[C@H](OC(C)(C)C)C(=O)O)CN(CCCc1ccc(Cl)cc1)CC2 (atropisomer, axis not shown) [Example 44, (2S)-2-(tert-Butoxy)-2-(6-(3-(4-chlorophenyl)propyl)-(R)-4-(8-fluoro-5-methylchroman-6-yl)-2-methyl-5,6,7,8-tetrahydro-1,6-naphthyridin-3-yl)acetic acid] | 0.003 |
| Cc1nc2c(c(-c3cc(F)c4c(c3C)CCCO4)c1[C@H](OC(C)(C)C)C(=O)O)CN(CCCc1ccc(F)cc1)CC2 (atropisomer, axis not shown) [Example 45, (S)-2-(tert-Butoxy)-2-((R)-4-(8-fluoro-5-methylchroman-6-yl)-6-(3-(4-fluorophenyl)propyl)-2-methyl-5,6,7,8-tetrahydro-1,6-naphthyridin-3-yl)acetic acid] | 0.004 |
| Cc1cccc(CCCN2CCc3nc(C)c([C@H](OC(C)(C)C)C(=O)O)c(-c4cc(F)c5c(c4C)CCCO5)c3C2)c1 (atropisomer, axis not shown) [Example 47, (2S)-2-(tert-Butoxy)-2-((R)-4-(8-fluoro-5-methylchroman-6-yl)-2-methyl-6-(3-(m-tolyl)propyl)-5,6,7,8-tetrahydro-1,6-naphthyridin-3-yl)acetic acid] | 0.002 |
| Cc1ccccc1CCCN1CCc2nc(C)c([C@H](OC(C)(C)C)C(=O)O)c(-c3cc(F)c4c(c3C)CCCO4)c2C1 (atropisomer, axis not shown) [Example 48, (2S)-2-(tert-Butoxy)-2-((R)-4-(8-fluoro-5-methylchroman-6-yl)-2-methyl-6-(3-(o-tolyl)propyl)-5,6,7,8-tetrahydro-1,6-naphthyridin-3-yl)acetic acid] | 0.002 |
| Cc1nc2c(c(-c3cc(F)c4c(c3C)CCCO4)c1[C@H](OC(C)(C)C)C(=O)O)CN(CCCc1cccc(F)c1)CC2 (atropisomer, axis not shown) [Example 49, (S)-2-(tert-Butoxy)-2-((R)-4-(8-fluoro-5-methylchroman-6-yl)-6-(3-(3-fluorophenyl)propyl)-2-methyl-5,6,7,8-tetrahydro-1,6-naphthyridin-3-yl)acetic acid] | 0.004 |
| Cc1ccc(CCCN2CCc3nc(C)c([C@H](OC(C)(C)C)C(=O)O)c(-c4cc(F)c5c(c4C)CCCO5)c3C2)cc1F (atropisomer, axis not shown) [Example 51] | 0.001 |
| Cc1cc(CCCN2CCc3nc(C)c([C@H](OC(C)(C)C)C(=O)O)c(-c4cc(F)c5c(c4C)CCCO5)c3C2)ccc1F (atropisomer, axis not shown) [Example 52, (2S)-2-(tert-Butoxy)-2-(6-(3-(4-fluoro-3-methylphenyl)propyl)-(R)-4-(8-fluoro-5-methylchroman-6-yl)-2-methyl-5,6,7,8-tetrahydro-1,6-naphthyridin-3-yl)acetic acid] | 0.002 |
| Cc1nc2c(c(-c3cc(F)c4c(c3C)CCCO4)c1[C@H](OC(C)(C)C)C(=O)O)CN(CCCc1cccc(C(F)(F)F)c1)CC2 (atropisomer, axis not shown) [Example 53] | 0.002 |
| Cc1nc2c(c(-c3cc(F)c4c(c3C)CCCO4)c1[C@H](OC(C)(C)C)C(=O)O)CN(CCCc1ccccc1F)CC2 (atropisomer, axis not shown) [Example 55, (2S)-2-(tert-Butoxy)-2-((R)-4-(8-fluoro-5-methylchroman-6-yl)-6-(3-(2-fluorophenyl)propyl)-2-methyl-5,6,7,8-tetrahydro-1,6-naphthyridin-3-yl)acetic acid] | 0.001 |
| Cc1ccc(S(=O)(=O)N[C@@H](Cc2ccccc2)C(=O)N2Cc3c(nc(C(C)C)c(C(OC(C)(C)C)C(=O)O)c3-c3ccc(F)cc3)C(C)(C)C2)cc1 (stereo in doubt) [Example 10, 2-tert-Butoxy-2-(4-(4-fluorophenyl)-2-isopropyl-8,8-dimethyl-6-(2-(4-methylphenylsulfonamido)-3-phenylpropanoyl)-5,6,7,8-tetrahydro-1,6-naphthyridin-3-yl)acetic acid] | 0.777 |
| Cc1ccc(-c2c3c(nc(C)c2C(OC(C)(C)C)C(=O)O)CCN(C(=O)[C@H](Cc2ccccc2)NS(=O)(=O)c2ccc(C)cc2)C3)cc1 (stereo in doubt) [Example 32, 2-(tert-Butoxy)-2-(2-methyl-6-(2-(4-methylphenylsulfonamido)-3-phenylpropanoyl)-4-(p-tolyl)-5,6,7,8-tetrahydro-1,6-naphthyridin-3-yl)acetic acid] | 2.3 |
| CC(=O)N1Cc2c(nc(C(C)C)c(C(OC(C)(C)C)C(=O)O)c2-c2ccc(F)cc2)C(C)(C)C1 (stereo not drawn) [Example 2, 2-(6-Acetyl-4-(4-fluorophenyl)-2-isopropyl-8,8-dimethyl-5,6,7,8-tetrahydro-1,6-naphthyridin-3-yl)-2-tert-butoxyacetic acid] | 10 |
| CC(C)c1nc2c(c(-c3ccc(F)cc3)c1C(OC(C)(C)C)C(=O)O)CN(C(=O)c1ccccc1)CC2(C)C (stereo not drawn) [Example 3, 2-(6-Benzoyl-4-(4-fluorophenyl)-2-isopropyl-8,8-dimethyl-5,6,7,8-tetrahydro-1,6-naphthyridin-3-yl)-2-tert-butoxyacetic acid] | 6.79 |
| CC(C)c1nc2c(c(-c3ccc(F)cc3)c1C(OC(C)(C)C)C(=O)O)CN(C(=O)c1ccc(F)cc1)CC2(C)C (stereo not drawn) [Example 4, 2-tert-Butoxy-2-(6-(4-fluorobenzoyl)-4-(4-fluorophenyl)-2-isopropyl-8,8-dimethyl-5,6,7,8-tetrahydro-1,6-naphthyridin-3-yl)acetic acid] | 3.16 |
| CC(C)c1nc2c(c(-c3ccc(F)cc3)c1C(OC(C)(C)C)C(=O)O)CN(C(=O)Cc1ccc(OCc3ccccc3)cc1)CC2(C)C (stereo not drawn) [Example 5, 2-(6-(2-(4-(Benzyloxy)phenyl)acetyl)-4-(4-fluorophenyl)-2-isopropyl-8,8-dimethyl-5,6,7,8-tetrahydro-1,6-naphthyridin-3-yl)-2-tert-butoxyacetic acid] | 5.13 |
| CC(C)c1nc2c(c(-c3ccc(F)cc3)c1C(OC(C)(C)C)C(=O)O)CN(C(=O)Cc1ccc(F)cc1)CC2(C)C (stereo not drawn) [Example 6, 2-tert-Butoxy-2-(4-(4-fluorophenyl)-6-(2-(4-fluorophenyl)acetyl)-2-isopropyl-8,8-dimethyl-5,6,7,8-tetrahydro-1,6-naphthyridin-3-yl)acetic acid] | 0.185 |
| CC(C)c1nc2c(c(-c3ccc(F)cc3)c1C(OC(C)(C)C)C(=O)O)CN(C(=O)Cc1ccccc1)CC2(C)C (stereo not drawn) [Example 7, 2-tert-Butoxy-2-(4-(4-fluorophenyl)-2-isopropyl-8,8-dimethyl-6-(2-phenylacetyl)-5,6,7,8-tetrahydro-1,6-naphthyridin-3-yl)acetic acid] | 7.54 |
| CC(C)c1nc2c(c(-c3ccc(F)cc3)c1C(OC(C)(C)C)C(=O)O)CN(C(=O)[C@@H]1C[C@H]1c1ccccc1)CC2(C)C (stereo partly drawn) [Example 8, 2-tert-Butoxy-2-(4-(4-fluorophenyl)-2-isopropyl-8,8-dimethyl-6-((1R,2R)-2-phenylcyclopropanecarbonyl)-5,6,7,8-tetrahydro-1,6-naphthyridin-3-yl)acetic acid] | 6.72 |
| CC(C)c1nc2c(c(-c3ccc(F)cc3)c1C(OC(C)(C)C)C(=O)O)CN(C(=O)CCCc1ccccc1)CC2(C)C (stereo not drawn) [Example 9, 2-tert-Butoxy-2-(4-(4-fluorophenyl)-2-isopropyl-8,8-dimethyl-6-(4-phenylbutanoyl)-5,6,7,8-tetrahydro-1,6-naphthyridin-3-yl)acetic acid] | 6.71 |
| CC(C)c1nc2c(c(-c3ccc(F)cc3)c1C(OC(C)(C)C)C(=O)O)CN(C(=O)C(=O)c1c[nH]c3ccccc13)CC2(C)C (stereo not drawn) [Example 11, 2-(6-(2-(1H-Indol-3-yl)-2-oxoacetyl)-4-(4-fluorophenyl)-2-isopropyl-8,8-dimethyl-5,6,7,8-tetrahydro-1,6-naphthyridin-3-yl)-2-tert-butoxyacetic acid] | 4.12 |
| CC(C)c1nc2c(c(-c3ccc(F)cc3)c1C(OC(C)(C)C)C(=O)O)CN(C(=O)CCc1ccccc1)CC2(C)C (stereo not drawn) [Example 12, 2-tert-Butoxy-2-(4-(4-fluorophenyl)-2-isopropyl-8,8-dimethyl-6-(3-phenylpropanoyl)-5,6,7,8-tetrahydro-1,6-naphthyridin-3-yl)acetic acid] | 7.13 |
| CC(C)c1nc2c(c(-c3ccc(F)cc3)c1C(OC(C)(C)C)C(=O)O)CN(C(=O)c1ccc(-c3ccccc3)cc1)CC2(C)C (stereo not drawn) [Example 13, 2-(6-(Biphenylcarbonyl)-4-(4-fluorophenyl)-2-isopropyl-8,8-dimethyl-5,6,7,8-tetrahydro-1,6-naphthyridin-3-yl)-2-tert-butoxyacetic acid] | 2.01 |
| Cc1onc(-c2ccccc2)c1C(=O)N1Cc2c(nc(C(C)C)c(C(OC(C)(C)C)C(=O)O)c2-c2ccc(F)cc2)C(C)(C)C1 (stereo not drawn) [Example 14, 2-tert-Butoxy-2-(4-(4-fluorophenyl)-2-isopropyl-8,8-dimethyl-6-(5-methyl-3-phenylisoxazole-4-carbonyl)-5,6,7,8-tetrahydro-1,6-naphthyridin-3-yl)acetic acid] | 10.2 |
| CC(C)c1nc2c(c(-c3ccc(F)cc3)c1C(OC(C)(C)C)C(=O)O)CN(c1ccccc1)CC2(C)C (stereo not drawn) [Example 15, 2-tert-Butoxy-2-(4-(4-fluorophenyl)-2-isopropyl-8,8-dimethyl-6-phenyl-5,6,7,8-tetrahydro-1,6-naphthyridin-3-yl)acetic acid] | 2.09 |
| CC(C)c1nc2c(c(-c3ccc(F)cc3)c1C(OC(C)(C)C)C(=O)O)CN(Cc1ccc(F)cc1)CC2(C)C (stereo not drawn) [Example 16, 2-tert-Butoxy-2-(6-(4-fluorobenzyl)-4-(4-fluorophenyl)-2-isopropyl-8,8-dimethyl-5,6,7,8-tetrahydro-1,6-naphthyridin-3-yl)acetic acid] | 6.92 |
| CC(C)c1nc2c(c(-c3ccc(F)cc3)c1C(OC(C)(C)C)C(=O)O)CN(c1cccc(-c3ccccc3)c1)CC2(C)C (stereo not drawn) [Example 17, 2-(6-([1,1′-Biphenyl]-3-yl)-4-(4-fluorophenyl)-2-isopropyl-8,8-dimethyl-5,6,7,8-tetrahydro-1,6-naphthyridin-3-yl)-2-(tert-butoxy)acetic acid] | 4.6 |
